Laboratory results published in patent US5631261A, “Triazoloquinazolines, their preparation and use” (BASF Aktiengesellschaft, priority 1992, dated 1997).

What was measured:
[1] = biological target: T1, NMDA receptor (N-methyl-D-aspartate) (Rattus norvegicus, UniProt P35439); test: Binding of 3H-5,7-dichlorokynurenic acid (displacement from rat cerebral membranes); details: buffer pH 7.4, on ice 30 minutes
T1 construct: isolated membrane material from rat cerebra; from tissue; host or cells: rat cerebrum, washed membranes
Protocol: (§1) The pharmacological activity of the compounds I according to the invention was investigated on isolated membrane material from rat cerebra. To do this, the membrane material was treated in the presence of the compounds according to the invention with the radiolabeled substances ^3 H-2-amino-3-hydroxy-5-methyl-4-isoxazolepropionic acid (^3 H-AMPA) and ^3 H-5,7-dichlorokynurenic acid, the latter binding to specific receptors (AMPA receptor and NMDA receptor (N-methyl-D-aspartate)respectively). The radioactivity of the treated membranes was subsequently measured by scintillation counting. The amounts of bound ^3 H-AMPA and ^3 H-5,7-dichlorokynurenic acid, or in each case the amounts of these radiolabeled substances displaced, were determined from the bound radioactivity. The dissociation constant KI (I=inhibitor) resulting from this, which is a measure of the displacing effect of the agent according to the invention, was found by iterative nonlinear regression analysis using the Statistical Analysis System (SAS) on an IBM computer, similar to the Ligand program of P. J. Munson or D. Rodbard (Analytical Biochem. 107, 220 (1980), Ligand: Versatile Computerized Approach for Characterization of Ligand Binding Systems).
2. Binding of ^3 H-5,7-dichlorokynurenic acid
To prepare the membrane material, freshly removed rat cerebra were homogenized together with about 10 times the volume of a buffer solution A' composed of 50 mM TRIS-HCl and 10 mM EDTA, pH 7.4. The suspension was centrifuged at 48,000 g for 20 minutes. After removal of the supernatant liquid, the membrane material present in the sediment was washed twice by suspension in buffer solution A' and subsequent centrifugation for 20 minutes each time and suspension. After resuspension of the membranes in buffer solution A' and freezing in liquid nitrogen, the suspension was thawed again at 37° C. and, after another wash step, incubated at 37° C. for 15 minutes. The protein material was subsequently washed by centrifugation and suspension four times and was stored at -70° C. until used.
For the binding assay, the protein material was thawed at 37° C. and washed twice by centrifugation at 48,000 g (20 minutes) followed by suspension in a buffer solution B' composed of 50 mM TRIS-HCl, pH 7.4. Subsequently 0.15 mg of membrane material, 0.3 μCi of ^3 H-5,7-dichlorokynurenic acid (16 Ci/mmol) and compound I were dissolved in 1 ml of buffer solution B' and incubated on ice for 30 minutes. The incubated solution was centrifuged at 150,000 g for 2 minutes. After removal of the supernatant liquid, the sediments were suspended twice in 1.5 ml of cold buffer solution B' each time. After the radioactivity of the ^3 H-5,7-dichlorokynurenic acid bound to the membranes in the sediment had been measured, the KI was found by subjecting the displacement plots to regression analysis.

AMPA receptor = test: Binding of 3H-AMPA (displacement from rat cerebral membranes); details: buffer pH 7.1, on ice 60 minutes
Protocol: as §1
1. Binding of ^3 H-2-amino-3-hydroxy-5-methyl-4-isoxanolpropionic acid (^3 H-AMPA)
To prepare the membranes, freshly removed rat cerebra were homogenized together with about 15 times the volume of a buffer solution A composed of 30 mM α,α,α-tris(hydroxymethyl)methylamine hydrochloride (TRIS-HCl) and 0.5 mM ethylenediaminetetraacetic acid (EDTA), pH 7.4, using an Ultra-TURRAX. The suspension was centrifuged at 48,000 g for 20 min. After removal of the supernatant liquid, the proteinaceous membrane material present in the sediment was washed three times by suspension in buffer solution A and subsequent centrifugation at 48,000 g for 20 minutes each time. The membrane material was then suspended in 15 times the volume of buffer solution A and incubated at 37° C. for 30 minutes. The protein material was subsequently washed twice by centrifugation and suspension and stored at -70° C. until used.
For the binding assay, the protein material was thawed at 37° C. and washed twice by centrifugation at 48,000 g (20 minutes) followed by suspension in a buffer solution B composed of 50 mM TRIS-HCl, 0.1 M potassium thiocyanate and 2.5 mM calcium chloride, pH 7.1. Subsequently 0.25 mg of membrane material, 0.1 μCi of ^3 H-AMPA (60 Ci/mmol) and compound I were dissolved in 1 ml of buffer solution B and incubated on ice for 60 minutes. The incubated solution was filtered through a CF/B filter (from Whathman) which had previously been treated with a 0.5% strength aqueous solution of polyethyleneimine for at least 2 hours. The filtrate [sic] was then washed with 5 ml of cold buffer solution B in order to separate bound and free ^3 H-AMPA from one another. After the radioactivity of the bound ^3 H-AMPA in the membrane material had been measured by scintillation counting, the KI was determined by subjecting the displacement plots to regression analysis.

Row | Ki [1] | Ki (AMPA receptor) | SMILES
1 | 100 nM | – | Cc1cc2[nH]c(=O)n3nc(CCC(=O)O)nc3c2cc1C [Example 16]
2 | 650 nM | 600 nM | O=C(O)CCc1nc2c3ccc(C(F)(F)F)cc3[nH]c(=O)n2n1 [Example 18]
3 | 300 nM | 700 nM | O=C(O)CCc1nc2c3ccc4ccccc4c3[nH]c(=O)n2n1 [Example 19]
4 | 400 nM | 600 nM | O=C(O)CCc1nc2c3cc4ccccc4cc3[nH]c(=O)n2n1 [Example 20]
5 | 800 nM | – | Cc1cc2[nH]c(=O)n3nc(CCC(=O)NCc4ccccc4)nc3c2cc1C [Example 21, 3-(8,9-Dimethyl-1,2,4-triazolo[1,5-c]quinazolin-5-on-2)propionic acid benzylamide]

Continued, compound first:

Row | SMILES | Ki [1] | Ki (AMPA receptor)
6 | COC(=O)CCc1nc2c3cc(C)c(C)cc3[nH]c(=O)n2n1 [Example 4, Methyl 3-(8,9-dimethyl-1,2,4-triazolo[1,5-c]quinazolin-5-on-2)propionate] | 1750 nM | –
7 | O=C(O)CCCc1nc2c3ccc([N+](=O)[O-])cc3[nH]c(=O)n2n1 [Example 13] | 500 nM | 3400 nM
8 | O=C(O)CCc1nc2c3ccc([N+](=O)[O-])cc3[nH]c(=O)n2n1 [Example 14] | 170 nM | 600 nM
9 | O=C(O)CCc1nc2c3cc([N+](=O)[O-])c([N+](=O)[O-])cc3[nH]c(=O)n2n1 [Example 15] | 400 nM | 1000 nM
